From the NIST ThermoML archive (doi:10.1016/j.jct.2013.03.005)
Values joined by “and” are separate entries in the source; they are usually repeats but may differ in a detail not shown here. Equal values may be shown once.

Tests used:
[1] = molar enthalpy of vaporization or sublimation; conditions: 298.15 K; Crystal; Static calorimetry
[2] = for mass density: 298.15 K, 101.33 kPa, mass/volume ratio of a pellet; for Normal melting temperature: DTA
[3] = Molar enthalpy of transition or fusion; conditions: Crystal; DSC

O=C(O)C1c2ccccc2-c2ccccc21 [9H-fluorene-9-carboxylic acid]
Conditions	Molar enthalpy of transition or fusion [kcal/mol]	molar enthalpy [kcal/mol]
[1]	–	30.4
[3]	7.23	–

[2], Crystal
Conditions	Normal melting temperature [°C]	mass density [kg/m3]
–	230.68	1164

[2], Crystal, Calculated from knudsen effusion weight loss
Conditions	vapor or sublimation pressure [kPa]
384.16 K	0.000139
386.13 K	0.000171
388.15 K	0.000211
392.14 K	0.000307
394.15 K	0.000378
396.15 K	0.000474
398.15 K	0.000558
400.13 K	0.000689
402.14 K	0.000811
404.15 K	0.000994
406.16 K	0.001182

OCC1c2ccccc2-c2ccccc21 [9-fluorenemethanol]
[2], Crystal
Conditions	Normal melting temperature [°C]	mass density [kg/m3]
–	103.92	1084

[2]
Conditions	vapor or sublimation pressure
337.18 K, Crystal, Calculated from knudsen effusion weight loss	9.2e-05 kPa and 9e-05 kPa
339.17 K, Crystal, Calculated from knudsen effusion weight loss	0.000119 kPa and 0.000117 kPa and 0.000115 kPa
341.1 K, Crystal, Calculated from knudsen effusion weight loss	0.00015 kPa and 0.000147 kPa
343.17 K, Crystal, Calculated from knudsen effusion weight loss	0.00019 kPa and 0.000187 kPa and 0.000197 kPa
345.21 K, Crystal, Calculated from knudsen effusion weight loss	0.000247 kPa and 0.000239 kPa and 0.000243 kPa
347.13 K, Crystal, Calculated from knudsen effusion weight loss	0.000306 kPa and 0.000303 kPa and 0.000302 kPa
349.16 K, Crystal, Calculated from knudsen effusion weight loss	0.00038 kPa and 0.000381 kPa and 0.00039 kPa
351.22 K, Crystal, Calculated from knudsen effusion weight loss	0.000493 kPa and 0.000476 kPa and 0.000488 kPa
353.14 K, Crystal, Calculated from knudsen effusion weight loss	0.000611 kPa and 0.000602 kPa and 0.000607 kPa
355.17 K, Crystal, Calculated from knudsen effusion weight loss	0.000748 kPa and 0.000739 kPa and 0.000772 kPa
357.16 K, Crystal, Calculated from knudsen effusion weight loss	0.00095 kPa and 0.000955 kPa and 0.000923 kPa
359.1 K, Crystal, Calculated from knudsen effusion weight loss	0.00118 kPa and 0.001184 kPa and 0.001169 kPa
362.69 K, Liquid, Closed cell (Static) method	0.00242 kPa
364.67 K, Liquid, Closed cell (Static) method	0.00285 kPa
366.66 K, Liquid, Closed cell (Static) method	0.00333 kPa
368.63 K, Liquid, Closed cell (Static) method	0.00391 kPa
370.62 K, Liquid, Closed cell (Static) method	0.00456 kPa
372.6 K, Liquid, Closed cell (Static) method	0.00529 kPa
374.57 K, Liquid, Closed cell (Static) method	0.00615 kPa
376.56 K, Liquid, Closed cell (Static) method	0.00711 kPa
378.53 K, Liquid, Closed cell (Static) method	0.00817 kPa
380.52 K, Liquid, Closed cell (Static) method	0.00947 kPa
382.5 K, Liquid, Closed cell (Static) method	0.01089 kPa
384.49 K, Liquid, Closed cell (Static) method	0.01253 kPa
386.47 K, Liquid, Closed cell (Static) method	0.0143 kPa
388.43 K, Liquid, Closed cell (Static) method	0.01639 kPa
390.43 K, Liquid, Closed cell (Static) method	0.0188 kPa
392.39 K, Liquid, Closed cell (Static) method	0.02137 kPa
394.37 K, Liquid, Closed cell (Static) method	0.02432 kPa
396.35 K, Liquid, Closed cell (Static) method	0.02764 kPa
398.32 K, Liquid, Closed cell (Static) method	0.03131 kPa
400.3 K, Liquid, Closed cell (Static) method	0.03556 kPa

Conditions	Molar enthalpy of transition or fusion [kcal/mol]
[3]	6.67
